In patent US9242984B2, “Pyrazolyl derivatives as Syk inhibitors” (Merck Sharp & Dohme Corp., priority 2012, dated 2016):
Where two headings read alike, the source gives them in different places.

Molecular target: T1, recombinant human Syk (GST-hSyk fusion protein) (Homo sapiens, UniProt P43405)
T1 construct: purchased Carna Biosciences 08-176
Test: Homogeneous Time-Resolved Fluorescence (HTRF) assay for the recombinant human Syk enzyme
Type: biochemical
Conditions: 10-dose titration, 25 μM ATP
In short: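 GST-hSyk (5 pM) preincubated 10 min with compound (0.1% DMSO) in 15 mM Tris-HCl pH 7.5, 2 mM DTT; reaction started with 250 nM biotinylated peptide, 5 mM Mg, 25 μM ATP, 45 min, room temperature. EDTA quench, Eu-anti-phosphotyrosine/SA-APC HTRF read after 30 min; IC50 from 10-dose titration (10 μM–0.508 nM), four-parameter fit.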

[1] = IC50 class, read-out: rhSYK Activity

| IC50 [1] | IC50 (read-out: rhSYK IC50) | SMILES |
| --- | --- | --- |
| ≤ 100 nM |  | Cc1cc(Nc2ncc(Cl)c(C)n2)cc(-c2cnn(C[C@](C)(O)CO)c2)c1 [Example 2.97, (2S)-3-(4-{3-[(5-chloro-4-methylpyrimidin-2-yl)amino]-5-methylphenyl}-1H-pyrazol-1-yl)-2-methylpropane-1,2-diol] |
| ≤ 100 nM |  | Cc1cc(Nc2nccc(C(F)F)n2)cc(-c2cnn(CC(O)Cn3cccn3)c2)c1 (stereo not shown) [Example 5.25, 1-[4-(3-{[4-(difluoromethyl)pyrimidin-2-yl]amino}-5-methylphenyl)-1H-pyrazol-1-yl]-3-(1H-pyrazol-1-yl)propan-2-ol] |
| 100 to 1000 nM |  | Cc1ccnc(Nc2cc(C)nc(-c3cnn(C[C@@H](O)C(=O)O)c3)n2)c1 [Example 11.19, (2R)-2-hydroxy-3-(4-{4-methyl-6-[(4-methyl-pyridin-2-yl)amino]-pyrimidin-2-yl}-1H-pyrazol-1-yl)propanoic acid] |
| 100 to 1000 nM |  | Cc1cc(Nc2nccc(C(F)(F)F)n2)cc(-n2cc(C3(O)CCC(C(=O)O)C(C)(C)C3)cn2)c1 (stereo not shown) [Example 19.15, 4-hydroxy-2,2-dimethyl-4-[1-(3-methyl-5-{[4-(trifluoromethyl)pyrimidin-2-yl]amino}phenyl)-1H-pyrazol-4-yl]cyclohexanecarboxylic acid] |
| ≤ 100 nM |  | Cc1cc(Nc2nccc(C(F)F)n2)cc(-c2cnn(Cc3ccc(=O)[nH]c3)c2)c1 [Example 3.95, 5-{[4-(3-{[4-(difluoromethyl)pyrimidin-2-yl]amino}-5-methylphenyl)-1H-pyrazol-1-yl]methyl}pyridin-2(1H)-one] |
| ≤ 100 nM |  | COc1ccc2c(-c3cc(C)cc(Nc4nccc(C(F)(F)F)n4)c3)cnn2n1 [Example 2.36, N-[3-(6-methoxypyrazolo[1,5-b]pyridazin-3-yl)-5-methylphenyl]-4-(trifluoromethyl)pyrimidin-2-amine] |
| 100 to 1000 nM |  | CCOC(Cn1cc(-c2cc(C)cc(Nc3nccc(C(F)(F)F)n3)c2)cn1)OCC [Example 3.23, N-{3-[1-(2,2-diethoxyethyl)-1H-pyrazol-4-yl]-5-methylphenyl}-4-(trifluoromethyl)pyrimidin-2-amine] |
| ≤ 100 nM |  | Cc1cc(Nc2nccc(C(F)(F)F)n2)cc(-c2cnn(CC3(O)CCCOC3)c2)c1 (stereo not shown) [Example 12.7, 3-{[4-(3-methyl-5-{[4-(trifluoromethyl)pyrimidin-2-yl]amino}phenyl)-1H-pyrazol-1-yl]methyl}-tetrahydro-2H-pyran-3-ol] |
| ≤ 100 nM |  | Cc1cc(Nc2nccc(C(F)F)n2)cc(-c2cnn(C(C[C@H](C)O)[C@H](C)O)c2)c1 (stereo in doubt) [Example 2.55, 3-[4-(3-{[4-(difluoromethyl)pyrimidin-2-yl]amino}-5-methylphenyl)-1H-pyrazol-1-yl]hexane-2,5-diol] |
| ≤ 100 nM |  | Cc1cc(Nc2nccc(C(F)F)n2)cc(-c2cnn([C@H]3CC[C@H](C(=O)O)CC3)c2)c1 [Example 2.61, trans-4-[4-(3-{[4-(difluoromethyl)pyrimidin-2-yl]amino}-5-methylphenyl)-1H-pyrazol-1-yl]cyclohexanecarboxylic acid] |
| ≤ 100 nM |  | Cc1cc(Nc2nccc(C(F)(F)F)n2)cc(-c2cnn(Cc3noc(C)n3)c2)c1 [Example 3.10, N-(3-methyl-5-{1-[(5-methyl-1,2,4-oxadiazol-3-yl)methyl]-1H-pyrazol-4-yl}phenyl)-4-(trifluoromethyl)-pyrimidin-2-amine] |
| ≤ 100 nM |  | Cc1cc(Nc2nccc(C(F)F)n2)cc(-c2cnn(CC3CCNC(=O)O3)c2)c1 (stereo not shown) [Example 2.81, 6-{[4-(3-{[4-(difluoromethyl)pyrimidin-2-yl]amino}-5-methylphenyl)-1H-pyrazol-1-yl]methyl}-1,3-oxazinan-2-one] |

More lines, now with the values behind:

| SMILES | IC50 [1] | IC50 (read-out: rhSYK IC50) |
| --- | --- | --- |
| Cc1cc(Nc2nccc(C(F)F)n2)cc(-c2cnn(C(C[C@@H](C)O)[C@H](C)O)c2)c1 (stereo in doubt) [Example 2.54, 3-[4-(3-{[4-(difluoromethyl)pyrimidin-2-yl]amino}-5-methylphenyl)-1H-pyrazol-1-yl]hexane-2,5-diol] | ≤ 100 nM |  |
| Cc1cc(Nc2nccc(C(F)(F)F)n2)cc(-c2cnn(CC(N)=O)c2)c1 [Example 3.37, 2-[4-(3-methyl-5-{[4-(trifluoromethyl)pyrimidin-2-yl]amino}-phenyl)-1H-pyrazol-1-yl]acetamide] | ≤ 100 nM |  |
| COCCOC(=O)NC(C)(C)Cn1cc(-c2cc(C)cc(Nc3nccc(C(F)F)n3)c2)cn1 [Example 27.12, 2-methoxyethyl {2-[4-(3-{[4-(difluoromethyl)pyrimidin-2-yl]amino}-5-methylphenyl)-1H-pyrazol-1-yl]-1,1-dimethylethyl}carbamate] | ≤ 100 nM |  |
| Cc1cc(Nc2nccc(C(F)F)n2)cc(-c2cnn(CC3CC(=O)NC3=O)c2)c1 (stereo not shown) [Example 2.73, 3-{[4-(3-{[4-(difluoromethyl)pyrimidin-2-yl]amino}-5-methylphenyl)-1H-pyrazol-1-yl]methyl}pyrrolidine-2,5-dione] | ≤ 100 nM |  |
| COC(=O)[C@H](O)Cn1cc(-c2cc(C)cc(Nc3nccc(C(F)(F)F)n3)c2)cn1 [Example 5.3, methyl (2R)-2-hydroxy-3-[4-(3-methyl-5-{[4-(trifluoro-methyl)pyrimidin-2-yl]amino}phenyl)-1H-pyrazol-1-yl]propanoate] | ≤ 100 nM |  |
| Cc1cc(Nc2nccc(C)n2)cc(-c2cnn(CC3(O)CCC3)c2)c1 [Example 29.5, 1-[(4-{3-methyl-5-[(4-methylpyrimidin-2-yl)amino]phenyl}-1H-pyrazol-1-yl)methyl}cyclobutanol] | ≤ 100 nM |  |
| Cc1cc(Nc2nccc(C(F)(F)F)n2)cc(-c2cnn(C3CCCC(O)C3O)c2)c1 (stereo not shown) [Example 10.3] | ≤ 100 nM |  |
| Cc1cc(Nc2nccc(C(F)F)n2)cc(-c2cnn(C(C[C@H](C)O)[C@H](C)O)c2)c1 (stereo in doubt) [Example 2.51, 3-[4-(3-{[4-(difluoromethyl)pyrimidin-2-yl]amino}-5-methylphenyl)-1H-pyrazol-1-yl]hexane-2,5-diol] | ≤ 100 nM |  |
| Cc1cc(Nc2nccc(C(F)(F)F)n2)cc(-n2cc(C(C)(O)[C@H]3CC[C@H](C(=O)O)CC3)cn2)c1 (stereo partly drawn) [Example 19.13, trans-4-{1-hydroxy-1-[1-(3-methyl-5-{[4-(trifluoromethyl)pyrimidin-2-yl]amino}phenyl)-1H-pyrazol-4-yl]ethyl}cyclohexanecarboxylic acid] | ≤ 100 nM |  |
| Cc1cc(Nc2nccc(C(C)(F)F)n2)cc(-c2cnn(CC(C)(O)CC#N)c2)c1 (stereo not shown) [Example 20.9, 4-[4-(3-{[4-(1,1-difluoroethyl)pyrimidin-2-yl]amino}-5-methylphenyl)-1H-pyrazol-1-yl]-3-hydroxy-3-methylbutanenitrile] | ≤ 100 nM |  |
| Cc1cc(Nc2nccc(C(F)(F)F)n2)cc(-c2cnn(CC3(O)CCN(CC(=O)OC(C)(C)C)CC3)c2)c1 [Example 12.4, tert-butyl (4-hydroxy-4-{[4-(3-methyl-5-{[4-(trifluoro-methyl)pyrimidin-2-yl]amino}phenyl)-1H-pyrazol-1-yl]methyl}-piperidin-1-yl)acetate] | 100 to 1000 nM |  |
| Cc1cc(Nc2nccc(C(F)F)n2)cc(-c2cnn(C3CCC(O)C3(C)O)c2)c1 (stereo not shown) [Example 22.14, 5-[4-(3-{[4-(difluoromethyl)pyrimidin-2-yl]amino}-5-methylphenyl)-1H-pyrazol-1-yl]-1-methylcyclopentane-1,2-diol] | ≤ 100 nM | 5.8 nM |
